Source: US12116356B2, “N-heterocyclic five-membered ring-containing capsid protein assembly inhibitor, pharmaceutical composition thereof, and use thereof” (CHIA TAI TIANQING PHARMACEUTICAL GROUP CO., LTD., priority 2018, dated 2024)
Read-outs that look alike come from different tables or passages of the source.

What was measured:
Assay type in all cases: cell-based
[1] = In vitro cytotoxicity (CCK-8) in HepAD38 cells; settings: human
Protocol: (§1) A bottle of HepG2.2.15 or HepAD38 cells in good exponential growth state was taken, washed once by adding 5 mL PBS, and then thereto was added 3 mL trypsin. The sample was digested in a cell culture incubator, and taken out from time to time and observed under a microscope. When the cells just fell off, 1 mL trypsin was discarded. The residual liquid was placed in a cell culture incubator at 37° C. and digested for 8-15 min. The cells were taken out and observed under a microscope (whether the cells were individually round and there was no adhesion between the cells). 5 mL MEM medium was added for cell resuspension. The cells were then subjected to cell counting with a cell counter, diluted with a complete medium, and adjusted to a cell density of 2*10^5 cells/mL. Then the cells were seeded at 100 μL/well in a 96-well plate with a multi-channel pipette (the 96-well plate was coated with 50 μg/mL Collagen I solution in advance), and cultured in a constant temperature CO2 incubator for 24 h. The cells were treated by drug administration, and fresh medium containing the compound was used to replace the spent medium every 3 days. To control wells was added a drug-free medium containing 0.5% DMSO, and a control well containing a common medium was set up. 6 days after the administration, CCK-8 was added at 10 μL/well. After 1 to 2 hours, the absorbance was detected with microplate reader at 450 nm, and the inhibition rate and the CC50 were calculated.

[2] = tested on: HBV DNA in HepG2.2.15 cells; test: In vitro cell HBV DNA inhibitory activity (anti-HBV activity) in HepG2.2.15 cells; settings: Hepatitis B virus
Protocol: (§2) A bottle of HepG2.2.15 or HepAD38 cells in good exponential growth state was taken, washed once by adding 5 mL PBS, and then thereto was added 3 mL trypsin. After digesting at room temperature for 5 min, 2 mL trypsin was discarded, and then the sample was placed in a cell culture incubator and digested for 10 min. The cells were taken out from time to time and observed under a microscope (whether the cells were individually round and there was no adhesion between the cells). 10 mL complete medium was added to terminate the digestion. After pipetting into a single cell suspension, 10 μL of the cell suspension was taken out for cell counting with a cell counter, and then diluted with a complete medium and adjusted to a cell density of 1*10^5 cells/mL. Then the cell suspension was seeded at 1 mL/well in a 24-well plate with a multi-channel pipette (the 24-well plate was coated with 50 μg/mL Collagen I solution in advance), and cultured in a constant temperature CO2 incubator for 48 h.
(§3) Different compounds dissolved in DMSO were subjected to two-fold gradient dilution (10 concentrations in total) with complete medium. The compound was added, and fresh medium containing the compound was used to replace the spent medium every 72 hours. The cells were treated with the compound for 6 days. After the supernatant was siphoned off, 300 μL lysate (10 mM Tris-HCl, 1 mM EDTA, and 1% NP-40) was added to each well. After lysing at room temperature for 10 min, DNA was extracted, and HBV DNA in the intracellular viral capsid was measured by real-time fluorescence quantitative PCR. The inhibition rate was calculated based on the Ct value, and the EC50 value was calculated by the four-parameter method.

[3] = In vitro cytotoxicity (CCK-8) in HepG2.2.15 cells; settings: human
Protocol: as §1

HBV DNA in HepAD38 cells = test: In vitro cell HBV DNA inhibitory activity (anti-HBV activity) in HepAD38 cells; settings: Hepatitis B virus
Protocol: as §2, §3

[4] = 144 h, anti-HBV activity in HepG2.2.15 cells, 6 days treatment, intracellular capsid HBV DNA by qPCR, read-out: EC50
[5] = 144 h, anti-HBV activity in HepAD38 cells, 6 days treatment, intracellular capsid HBV DNA by qPCR, read-out: EC50

Row | Compound | EC50 [2, 4] [nM] | EC50 (HBV DNA in HepAD38 cells; [5]) [nM] | further results
1 | Cc1c(C(=O)Nc2ccc(F)c(C#N)c2)cc(C(=O)C(=O)NC(C)(C)C)n1C [Example 16, 5-(2-(tert-butylamino)-2-oxoacetyl)-N-(3-cyano-4-fluorophenyl)-1,2-dimethyl-1H-pyrrole-3-carboxamide] | < 10 |  | CC50 at 6 days [1]: > 100000 nM
2 | Cc1c(C(=O)Nc2ccc(F)c(C#N)c2)c(Cl)n(C)c1C(=O)C(=O)N[C@H](C)C(F)(F)F [Example 30, (R)-2-chloro-N-(3-cyano-4-fluorophenyl)-1,4-dimethyl-5-(2-oxo-2-((1,1,1-trifluoroprop-2-yl)amino)acetyl)-1H-pyrrole-3-carboxamide] | < 10 | 10 to 50 | CC50 at 6 days [1]: > 100000 nM; CC50 at 6 days [3]: > 100000 nM
3 | Cn1c(Br)c(C(=O)Nc2ccc(F)c(C#N)c2)c(Br)c1C(=O)C(=O)NC(C)(C)C [Example 20, 2,4-dibromo-5-(2-(tert-butylamino)-2-oxoacetyl)-N-(3-cyano-4-fluorophenyl)-1-methyl-1H-pyrrole-3-carboxamide] | 50 to 100 | 10 to 50 | 
4 | Cc1c(C(=O)Nc2ccc(F)c(C#N)c2)c(F)c(C(=O)C(=O)N[C@@H](C)C(F)(F)F)n1C [Example 54, (S)—N-(3-cyano-4-fluorophenyl)-4-fluoro-1,2-dimethyl-5-(2-oxo-2-((1,1,1-trifluoroprop-2-yl)amino)acetyl)-1H-pyrrole-3-carboxamide] |  |  | EC50 (HBV DNA in HepAD38 cells; HePAD38, 144 h): 10 to 50 nM; EC50 ([2]; HepG2.2.15, 144 h): < 10 nM
5 | Cn1cc(C(=O)Nc2ccc(F)c(C#N)c2)cc1C(=O)C(=O)NC1(C(F)(F)F)COC1 [Example 50, N-(3-cyano-4-fluorophenyl)-1-methyl-5-(2-oxo-2-((3-(trifluoromethyl)oxetan-3-yl)amino)acetyl)-1H-pyrrole-3-carboxamide] |  | 50 to 100 | 
6 | CNC(=O)C1(NC(=O)C(=O)c2c(C)c(C(=O)Nc3ccc(F)c(C#N)c3)c(C)n2C)CC(F)(F)C1 [Example 28] |  |  | EC50 (HBV DNA in HepAD38 cells; HePAD38, 144 h): 10 to 50 nM
7 | Cc1c(C(=O)Nc2cc(F)c(F)c(F)c2)c(C)n(C)c1C(=O)C(=O)NC1(C)COC1 [Example 47, 1,2,4-trimethyl-5-(2-((3-methyloxetan-3-yl)amino)-2-oxoacetyl)-N-(3,4,5-trifluorophenyl)-1H-pyrrole-3-carboxamide] | < 10 | < 10 | 
8 | Cc1c(C(=O)Nc2ccc(F)c(Cl)c2)c(Cl)n(C)c1C(=O)C(=O)N[C@@H](C)C(F)(F)F [Example 35, (S)-2-chloro-N-(3-chloro-4-fluorophenyl)-1,4-dimethyl-5-(2-oxo-2-((1,1,1-trifluoroprop-2-yl)amino)acetyl)-1H-pyrrole-3-carboxamide] |  | < 10 | 
9 | Cc1c(C(=O)Nc2ccc(F)c(Cl)c2)c(C)n(C)c1C(=O)C(=O)NC1(C)CCOCC1 [Example 36, N-(3-chloro-4-fluorophenyl)-1,2,4-trimethyl-5-(2-((4-methyltetrahydro-2H-pyran-4-yl)amino)-2-oxoacetyl)-1H-pyrrole-3-carboxamide] |  | < 10 | 
10 | Cc1c(C(=O)Nc2ccc(F)c(Cl)c2)c(C)n(C)c1C(=O)C(=O)N[C@@H](C)C(F)(F)F [Example 37, (S)—N-(3-chloro-4-fluorophenyl)-1,2,4-trimethyl-5-(2-oxo-2-((1,1,1-trifluoroprop-2-yl)amino)acetyl)-1H-pyrrole-3-carboxamide] |  | < 10 | 
11 | Cc1c(C(=O)Nc2ccc(F)c(C#N)c2)c(Cl)n(C)c1C(=O)C(=O)NC1(C)COC1 [Example 34, 2-chloro-N-(3-cyano-4-fluorophenyl)-1,4-dimethyl-5-(2-((3-methyloxetan-3-yl)amino)-2-oxoacetyl)-1H-pyrrole-3-carboxamide] |  | 10 to 50 | 
12 | Cc1c(C(=O)Nc2ccc(F)c(C#N)c2)c(C)n(C)c1C(=O)C(=O)NC1COC1 [Example 5, N-(3-cyano-4-fluorophenyl)-1,2,4-trimethyl-5-(2-(oxetan-3-ylamino)-2-oxoacetyl)-1H-pyrrole-3-carboxamide] |  | 10 to 50 | 
13 | Cc1c(C(=O)Nc2ccc(F)c(C#N)c2)c(C)n(C)c1C(=O)C(=O)NC1(C)CCOC1 (stereo not shown) [Example 23] | < 10 | < 10 | CC50 at 6 days [1]: > 100000 nM; CC50 at 6 days [3]: > 100000 nM
14 | Cc1c(C(=O)Nc2ccc(F)c(C#N)c2)c(Cl)n(C)c1C(=O)C(=O)NC1(C(F)(F)F)COC1 [Example 32] |  | < 10 | 
15 | Cc1c(C(=O)Nc2ccc(F)c(C#N)c2)c(C)n(C)c1C(=O)C(=O)N[C@H]1CCOC1 [Example 22] | 10 to 50 | 10 to 50 | CC50 at 6 days [1]: > 100000 nM; CC50 at 6 days [3]: > 100000 nM
16 | Cc1c(C(=O)Nc2ccc(F)c(C#N)c2)c(C)n(C)c1C(=O)C(=O)N[C@H]1C[C@@H](CO)C1 [Example 10, N-(3-cyano-4-fluorophenyl)-5-(2-((cis-3-(hydroxymethyl)cyclobutyl)amino)-2-oxoacetyl)-1,2,4-trimethyl-1H-pyrrole-3-carboxamide] |  | 10 to 50 | 
17 | Cc1c(C(=O)Nc2ccc(F)c(C#N)c2)c(C)n(C)c1C(=O)C(=O)N[C@H]1C[C@H](O)C1 [Example 3, N-(3-cyano-4-fluorophenyl)-5-(2-((trans-3-hydroxycyclobutyl)amino)-2-oxoacetyl)-1,2,4-trimethyl-1H-pyrrole-3-carboxamide] |  | 50 to 100 | 
18 | Cc1c(C(=O)Nc2ccc(F)c(C#N)c2)c(C)n(C)c1C(=O)C(=O)N[C@H]1C[C@@H](O)C1 [Example 4, N-(3-cyano-4-fluorophenyl)-5-(2-((cis-3-hydroxycyclobutyl)amino)-2-oxoacetyl)-1,2,4-trimethyl-1H-pyrrole-3-carboxamide] |  | 10 to 50 | 
19 | Cc1c(C(=O)Nc2ccc(F)c(C#N)c2)c(Cl)n(C)c1C(=O)C(=O)NC1(C)CCOCC1 [Example 31] |  | < 10 | 
20 | Cc1c(C(=O)Nc2ccc(F)c(C#N)c2)cn(C)c1C(=O)C(=O)NC(C)(C)C [Example 14, 5-(2-(tert-butylamino)-2-oxoacetyl)-N-(3-cyano-4-fluorophenyl)-1,4-dimethyl-1H-pyrrole-3-carboxamide] |  | 10 to 50 | 
21 | Cc1c(C(=O)Nc2ccc(F)c(F)c2)c(C)n(C)c1C(=O)C(=O)N[C@@H](C)C(F)(F)F [Example 38, (S)—N-(3,4-difluorophenyl)-1,2,4-trimethyl-5-(2-oxo-2-((1,1,1-trifluoroprop-2-yl)amino)acetyl)-1H-pyrrole-3-carboxamide] | < 10 | < 10 | 
22 | Cc1c(C(=O)Nc2ccc(F)c(C#N)c2)c(C)n(C)c1C(=O)C(=O)NC1(C)CC(O)C1 (stereo not shown) [Example 46, N-(3-cyano-4-fluorophenyl)-5-(2-((3-hydroxy-1-methylcyclobutyl)amino)-2-oxoacetyl)-1,2,4-trimethyl-1H-pyrrole-3-carboxamide] | < 10 | 10 to 50 | 
23 | [2H]C([2H])([2H])n1c(C)c(C(=O)Nc2ccc(F)c(C#N)c2)c(C)c1C(=O)C(=O)N[C@@H](C)C(F)(F)F [Example 60, (S)—N-(3-cyano-4-fluorophenyl)-2,4-dimethyl-1-(methyl-d3)-5-(2-oxo-2-((1,1,1-trifluoroprop-2-yl)amino)acetyl)-1H-pyrrole-3-carboxamide] |  | < 10 | 
24 | Cc1c(C(=O)Nc2ccc(F)c(C#N)c2)c(Cl)n(C)c1C(=O)C(=O)NC1(C)CC(O)C1 (stereo not shown) [Example 55, 2-chloro-N-(3-cyano-4-fluorophenyl)-5-(2-((3-hydroxy-1-methylcyclobutyl)amino)-2-oxoacetyl)-1,4-dimethyl-1H-pyrrole-3-carboxamide] |  |  | EC50 (HBV DNA in HepAD38 cells; HePAD38, 144 h): 10 to 50 nM; EC50 ([2]; HepG2.2.15, 144 h): 10 to 50 nM
25 | Cc1c(C(=O)Nc2ccc(F)cc2)c(C)n(C)c1C(=O)C(=O)N[C@@H](C)C(F)(F)F [Example 39] | < 10 | < 10 | CC50 at 6 days [3]: > 100000 nM
